Measurements: PMC4338433 (Scientific Reports, 2015)

Key:
[1] = molecular target: H. contortus AVR-14B GluCl (wild-type) (Haemonchus contortus, UniProt O46124); assay type: cell-based; details: Wild-type AVR-14B GluCl, mean ± s.e.m.
Source text: (§1) All mutant cDNAs were generated from AVR-14B cDNA in the T7 plasmid vector[45] by conventional PCR with Pfu DNA polymerase (Thermo Scientific, Germany) and commercially generated mutagenesis primers (Eurofins MWG Operon, Ebersberg, Germany). All cDNAs were sequenced to confirm the presence of appropriate mutations (Eurofins MWG Operon) and linearized with XbaI (Thermo Scientific). cRNAs were synthesized with the mMESSAGE mMACHINE T7 Kit (Life Technologies GmbH, Darmstadt, Germany). X. laevis oocytes were used for two electrode voltage-clamp electrophysiology as previously described[48] and under approval of the Technical University of Darmstadt (Agreement V54-19c20/15 DA8/Anz. 20). […] Non-linear regression parameters were compared to the respective WT value with Student's unpaired t tests (Prism4).

AVR-14B GluCl A197E = assay: Two electrode voltage-clamp of Xenopus laevis oocytes expressing A197E mutant AVR-14B GluCl; assay type: cell-based, Haemonchus contortus
Source text: as §1, with “20). After 2–5 days, oocytes were perfused with extracellular solution (115 mM NaCl, 1 mM KCl, 1.8 mM CaCl2, 10 mM HEPES, pH 7.4 with NaOH) alone or containing agonist, and currents were sampled at 1 kHz and filtered at 500 Hz with a Digidata 1322A digitizer, Geneclamp 500B amplifier and Clampex software (Molecular Devices, Sunnyvale, CA, USA).” for “20).”

[2] = molecular target: T1, AVR-14B GluCl R76N/Q141R/K219A (RN/QR/KA) (Haemonchus contortus, UniProt O46124, K219A/Q141R/R76N); details: R76N/Q141R/K219A triple-mutant; mean ± s.e.m.
T1 sequence (O46124 31-438 R76N/Q141R/K219A): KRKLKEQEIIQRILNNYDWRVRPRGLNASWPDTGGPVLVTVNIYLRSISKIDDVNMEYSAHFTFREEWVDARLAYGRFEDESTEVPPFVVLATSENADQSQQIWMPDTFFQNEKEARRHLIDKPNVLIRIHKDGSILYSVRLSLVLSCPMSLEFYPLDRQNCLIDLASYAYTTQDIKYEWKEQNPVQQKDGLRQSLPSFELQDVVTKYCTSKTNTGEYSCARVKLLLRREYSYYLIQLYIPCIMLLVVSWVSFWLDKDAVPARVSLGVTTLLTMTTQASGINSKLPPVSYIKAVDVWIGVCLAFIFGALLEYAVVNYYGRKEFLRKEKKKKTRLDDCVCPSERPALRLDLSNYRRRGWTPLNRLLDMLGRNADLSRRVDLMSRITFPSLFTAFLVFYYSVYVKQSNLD
Source text: as §1

AVR-14B GluCl Y248F = molecular target: T2, AVR-14B GluCl Y248F (Haemonchus contortus, UniProt O46124, Y248F); details: Y248F mutant, mean ± s.e.m.
T2 sequence (O46124 31-438 Y248F): T1 sequence (O46124 31-438 R76N/Q141R/K219A)
Source text: as §1

AVR-14B GluCl S169A = molecular target: T3, AVR-14B GluCl S169A (Haemonchus contortus, UniProt O46124, S169A); details: S169A mutant, mean ± s.e.m.
T3 sequence (O46124 31-438 S169A): T1 sequence (O46124 31-438 R76N/Q141R/K219A)
Source text: as §1

AVR-14B GluCl Q141R = molecular target: T4, AVR-14B GluCl Q141R (Haemonchus contortus, UniProt O46124, Q141R); details: Q141R mutant; mean ± s.e.m.
T4 sequence (O46124 31-438 Q141R): T1 sequence (O46124 31-438 R76N/Q141R/K219A)
Source text: as §1

AVR-14B GluCl K219A = molecular target: T5, AVR-14B GluCl K219A (Haemonchus contortus, UniProt O46124, K219A); details: K219A mutant, mean ± s.e.m.
T5 sequence (O46124 31-438 K219A): T1 sequence (O46124 31-438 R76N/Q141R/K219A)
Source text: as §1

AVR-14B GluCl T245A = molecular target: T6, AVR-14B GluCl T245A (Haemonchus contortus, UniProt O46124, T245A); details: T245A mutant, mean ± s.e.m.
T6 sequence (O46124 31-438 T245A): T1 sequence (O46124 31-438 R76N/Q141R/K219A)
Source text: as §1

AVR-14B GluCl R76N = assay: Two electrode voltage-clamp of Xenopus laevis oocytes expressing R76N mutant AVR-14B GluCl; assay type: cell-based, Haemonchus contortus
Source text: as §1, with “20). After 2–5 days, oocytes were perfused with extracellular solution (115 mM NaCl, 1 mM KCl, 1.8 mM CaCl2, 10 mM HEPES, pH 7.4 with NaOH) alone or containing agonist, and currents were sampled at 1 kHz and filtered at 500 Hz with a Digidata 1322A digitizer, Geneclamp 500B amplifier and Clampex software (Molecular Devices, Sunnyvale, CA, USA).” for “20).”

AVR-14B GluCl R95A = assay: Two electrode voltage-clamp of Xenopus laevis oocytes expressing R95A mutant AVR-14B GluCl; assay type: cell-based, Haemonchus contortus; details: 1 μM ivermectin, mean ± s.e.m.
Source text: as §1, with “20). After 2–5 days, oocytes were perfused with extracellular solution (115 mM NaCl, 1 mM KCl, 1.8 mM CaCl2, 10 mM HEPES, pH 7.4 with NaOH) alone or containing agonist, and currents were sampled at 1 kHz and filtered at 500 Hz with a Digidata 1322A digitizer, Geneclamp 500B amplifier and Clampex software (Molecular Devices, Sunnyvale, CA, USA).” for “20).”

AVR-14B GluCl Y199F = assay: Two electrode voltage-clamp of Xenopus laevis oocytes expressing Y199F mutant AVR-14B GluCl; assay type: cell-based, Haemonchus contortus; details: 1 μM ivermectin, mean ± s.e.m.
Source text: as §1, with “20). After 2–5 days, oocytes were perfused with extracellular solution (115 mM NaCl, 1 mM KCl, 1.8 mM CaCl2, 10 mM HEPES, pH 7.4 with NaOH) alone or containing agonist, and currents were sampled at 1 kHz and filtered at 500 Hz with a Digidata 1322A digitizer, Geneclamp 500B amplifier and Clampex software (Molecular Devices, Sunnyvale, CA, USA).” for “20).”

Row | Compound | Glutamate nH ([1]; Hill coefficient) | Glutamate Imax ([1]; maximum glutamate-gated current) | Glutamate-gated currents (AVR-14B GluCl A197E; effect of the A197E substitution) | Glutamate Imax [2] | Glutamate nH (AVR-14B GluCl Y248F; Hill coefficient) | Glutamate Imax (AVR-14B GluCl Y248F) | Glutamate nH (AVR-14B GluCl S169A; Hill coefficient) | Glutamate Imax (AVR-14B GluCl S169A) | Glutamate Imax (AVR-14B GluCl Q141R) | Glutamate nH (AVR-14B GluCl K219A; Hill coefficient) | Glutamate Imax (AVR-14B GluCl K219A) | Glutamate nH (AVR-14B GluCl T245A; Hill coefficient) | Glutamate Imax (AVR-14B GluCl T245A) | Gating by glutamate (AVR-14B GluCl R76N; glutamate up to 100 mM) | Ivermectin Imax (AVR-14B GluCl R95A) | Ivermectin Imax ([1]; 1 μM ivermectin) | Ivermectin Imax (AVR-14B GluCl A197E; 1 μM ivermectin, A197E mutant, mean ± s.e.m.) | Ivermectin Imax (AVR-14B GluCl R76N; 1 μM ivermectin, mean ± s.e.m.) | Ivermectin Imax (AVR-14B GluCl Y199F)
1 | N[C@@H](CCC(=O)O)C(=O)O [Glutamate] | 1.7 ± 0.2 | 3.1 ± 0.3 μA | abolished | 2.3 ± 0.3 μA | 1.9 ± 0.2 | 4.3 ± 0.8 μA | 1.8 ± 0.2 | 4.3 ± 1.1 μA | 1.1 ± 0.4 μA | 2.1 ± 0.4 | 3.3 ± 0.5 μA | 2.0 ± 0.1 | 5.5 ± 0.8 μA | not substantially gated | – | – | – | – | –
2 | Ivermectin | – | – | – | – | – | – | – | – | – | – | – | – | – | – | 4.8 ± 1.9 μA | 2.4 ± 0.4 μA | 2.4 ± 0.7 μA | 3.6 ± 1.0 μA | 0.7 ± 0.2 μA
